According to PubChem BioAssay AID248 (DTP/NCI, 2004):
Where “and” joins values, the source holds several entries; their conditions need not be identical. Equal entries are not always repeated. Inconclusive results and toxic doses are left out.

System: L1210 leukemia ip in BDF1 mice, survival T/C
Assay: NCI In Vivo Anticancer Drug Screen. Data for tumor model L1210 Leukemia (intraperitoneal) in B6D2F1 (BDF1) mice
Conditions: endpoint: mean survival time, higher = longer survival
Procedure, shortened: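 Tumor was transplanted into mice, which were then dosed with test compound or vehicle alone. Survival was recorded for each group, and the treated figure was expressed relative to the control figure.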

[1] = dose: 50.0 mg/kg/injection, schedule: Q01DX009 (ip), vehicle: saline with Tween-80
[2] = dose: 100.0 mg/kg/injection, schedule: Q01DX009 (ip), vehicle: saline with Tween-80
[3] = dose: 100.0 mg/kg/injection, schedule: Q01DX001 (ip), vehicle: saline
[4] = dose: 100.0 mg/kg/injection, schedule: Q04DX002 (ip), vehicle: Klucel (hydroxypropylcellulose) (HPC)
[5] = dose: 200.0 mg/kg/injection, schedule: Q04DX002 (ip), vehicle: Klucel (hydroxypropylcellulose) (HPC)
[6] = dose: 400.0 mg/kg/injection, schedule: Q04DX002 (ip), vehicle: Klucel (hydroxypropylcellulose) (HPC)
[7] = dose: 200.0 mg/kg/injection, schedule: Q01DX009 (ip), vehicle: saline with Tween-80
[8] = dose: 100.0 mg/kg/injection, schedule: Q04DX003 (ip), vehicle: saline with Tween-80
[9] = dose: 200.0 mg/kg/injection, schedule: Q04DX003 (ip), vehicle: saline with Tween-80
[10] = dose: 400.0 mg/kg/injection, schedule: Q04DX003 (ip), vehicle: saline with Tween-80
[11] = dose: 100.0 mg/kg/injection, schedule: Q01DX009 (ip), vehicle: saline
[12] = dose: 100.0 mg/kg/injection, schedule: Q04DX003 (ip), vehicle: saline
[13] = dose: 200.0 mg/kg/injection, schedule: Q01DX009 (ip), vehicle: saline
[14] = dose: 200.0 mg/kg/injection, schedule: Q04DX003 (ip), vehicle: saline
[15] = dose: 400.0 mg/kg/injection, schedule: Q01DX009 (ip), vehicle: saline
[16] = dose: 400.0 mg/kg/injection, schedule: Q04DX003 (ip), vehicle: saline
[17] = dose: 75.0 mg/kg/injection, schedule: Q01DX001 (ip), vehicle: saline
[18] = dose: 150.0 mg/kg/injection, schedule: Q01DX001 (ip), vehicle: saline
[19] = dose: 100.0 mg/kg/injection, schedule: Q01DX001 (ip), vehicle: saline with Tween-80
[20] = dose: 200.0 mg/kg/injection, schedule: Q01DX001 (ip), vehicle: saline with Tween-80

For `Cc1nc(N(C)C)c2cnn(-c3ccccc3)c2n1`, the T/C [1] was 106 % of control, the T/C (dose: 100.0 mg/kg/injection, schedule: Q01DX001 (ip), vehicle: acetone) was 101 % of control and the T/C [2] was 87 % of control. The T/C (dose: 200.0 mg/kg/injection, schedule: Q01DX001 (ip), vehicle: acetone) was 97 % of control.

For `O=[N+]([O-])c1cccc(OCCOc2cccc([N+](=O)[O-])c2)c1`, the T/C [3] was 97 % of control, the T/C (dose: 200.0 mg/kg/injection, schedule: Q01DX001 (ip), vehicle: saline) was 96 % of control and the T/C (dose: 400.0 mg/kg/injection, schedule: Q01DX001 (ip), vehicle: saline) was 103 % of control.

With `OC(CN1CCCCC1)c1nc2ccccc2c2ccccc12` (stereo not drawn) the T/C (dose: 50.0 mg/kg/injection, schedule: Q01DX001 (ip), vehicle: saline) was 102 % of control and the T/C [3] was 94 % of control.

For `CCCCCCC(C)O[Si](C)Cc1ccccc1` (stereo not drawn), the T/C (dose: 100.0 mg/kg/injection, schedule: Q04DX003 (ip), vehicle: other) was 95 % of control, the T/C (dose: 200.0 mg/kg/injection, schedule: Q04DX003 (ip), vehicle: other) was 97 % of control and the T/C (dose: 400.0 mg/kg/injection, schedule: Q04DX003 (ip), vehicle: other) was 94 % of control.

`CCn1c(=O)cc(C)c2ccccc21` was tested, and the T/C (dose: 75.0 mg/kg/injection, schedule: Q01DX001 (ip), vehicle: carboxymethylcellulose (CMC)) was 104 % of control, the T/C (dose: 150.0 mg/kg/injection, schedule: Q01DX001 (ip), vehicle: carboxymethylcellulose (CMC)) was 104 % of control and the T/C (dose: 300.0 mg/kg/injection, schedule: Q01DX001 (ip), vehicle: carboxymethylcellulose (CMC)) was 96 % of control.

With `CC(C)NC(=O)Oc1ccccc1` the T/C [4] was 93 % of control, the T/C [5] was 110 % of control and the T/C [6] was 96 % of control.

For `CCOC(CS(=O)(=O)CC(N)=O)OCC`, the T/C [2] was 97 % of control, the T/C [7] was 95 % of control and the T/C (dose: 400.0 mg/kg/injection, schedule: Q01DX009 (ip), vehicle: saline with Tween-80) was 92 % of control.

For `CC(C)c1ccc(C(=O)CCCCl)cc1`, the T/C [8] was 97 % of control, the T/C [9] was 102 % of control and the T/C [10] was 92 % of control.

In the case of `CN(C)/C=C(/C#N)C(=O)N1CCCC1`, the T/C [11] is reported as 106 % of control, the T/C [12] is reported as 101 % of control and the T/C [13] is reported as 102 % of control. The T/C [14] was 101 % of control, the T/C [15] was 112 % of control and the T/C [16] was 117 % of control.

`CCCCCCC(C)OCC(=O)c1ccccc1` (stereo not drawn) was tested, and the T/C (dose: 100.0 mg/kg/injection, schedule: Q04DX002 (ip), vehicle: saline) was 94 % of control and the T/C (dose: 200.0 mg/kg/injection, schedule: Q04DX002 (ip), vehicle: saline) was 91 % of control.

For `O=c1[nH]cc(C2OC(CO)C(O)C2O)c(=O)[nH]1` (stereo not drawn), the T/C (dose: 100.0 mg/kg/injection, schedule: Q01DX005 (ip), vehicle: saline) was 119 % of control and the T/C (dose: 200.0 mg/kg/injection, schedule: Q01DX005 (ip), vehicle: saline) was 97 % of control.

`O=C(O)CC1NCc2cc3ccccc3nc21` (stereo not drawn) was tested, and the T/C (dose: 10.0 mg/kg/injection, schedule: Q04DX003 (ip), vehicle: alcohol) was 94 % of control, the T/C (dose: 20.0 mg/kg/injection, schedule: Q04DX003 (ip), vehicle: alcohol) was 99 % of control and the T/C (dose: 40.0 mg/kg/injection, schedule: Q04DX003 (ip), vehicle: alcohol) was 105 % of control. The T/C (dose: 80.0 mg/kg/injection, schedule: Q04DX003 (ip), vehicle: alcohol) was 99 % of control and the T/C (dose: 160.0 mg/kg/injection, schedule: Q04DX003 (ip), vehicle: alcohol) was 97 % of control.

For `CS(N)(=O)=O`, the T/C (dose: 12.5 mg/kg/injection, schedule: Q04DX002 (ip), vehicle: saline) was 111 % of control, the T/C (dose: 25.0 mg/kg/injection, schedule: Q04DX002 (ip), vehicle: saline) was 96 % of control and the T/C (dose: 50.0 mg/kg/injection, schedule: Q04DX002 (ip), vehicle: saline) was 96 % of control.

In the case of `COc1cc(CNC2CCCCC2)ccc1O`, the T/C [17] is reported as 97 % of control and the T/C [18] is reported as 110 % of control.

In the case of `COC1(OC)CC2C(=O)CCCC21OC(C)=O` (stereo not drawn), the T/C (dose: 75.0 mg/kg/injection, schedule: Q04DX002 (ip), vehicle: saline) is reported as 93 % of control, the T/C (dose: 150.0 mg/kg/injection, schedule: Q04DX002 (ip), vehicle: saline) is reported as 103 % of control and the T/C (dose: 300.0 mg/kg/injection, schedule: Q04DX002 (ip), vehicle: saline) is reported as 107 % of control.

`CCC(COC(=O)c1ccccc1)NC1CCCC1` (stereo not drawn) was tested, and the T/C [17] was 102 % of control, the T/C [18] was 103 % of control and the T/C (dose: 300.0 mg/kg/injection, schedule: Q01DX001 (ip), vehicle: saline) was 111 % of control.

With `O=C(CBr)OCC1CC2C=CC1C2` (stereo not drawn) the T/C (dose: 13.3 mg/kg/injection, schedule: Q01DX Z (ip), vehicle: methylcellulose (MC)) was 93 % of control, the T/C (dose: 20.0 mg/kg/injection, schedule: Q01DX Z (ip), vehicle: methylcellulose (MC)) was 96 % of control and the T/C (dose: 30.0 mg/kg/injection, schedule: Q01DX Z (ip), vehicle: methylcellulose (MC)) was 90 % of control.

`CCCc1c(OCC)c(OC)c2c3c(c(-c4c(C)cc5c(CCC)c(OCC)c(OC)c6c5c4OC6OC)c(C)cc13)OC2OC` (stereo not drawn) was tested, and the T/C (dose: 100.0 mg/kg/injection, schedule: Q01DX009 (ip), vehicle: Klucel (hydroxypropylcellulose) (HPC)) was 94 % of control, the T/C (dose: 200.0 mg/kg/injection, schedule: Q01DX009 (ip), vehicle: Klucel (hydroxypropylcellulose) (HPC)) was 98 % of control and the T/C (dose: 400.0 mg/kg/injection, schedule: Q01DX009 (ip), vehicle: Klucel (hydroxypropylcellulose) (HPC)) was 98 % of control.

In the case of `CN(C(=O)c1ccccc1)N(C)C(=O)c1ccccc1`, the T/C (dose: 25.0 mg/kg/injection, schedule: Q01DX009 (ip), vehicle: Klucel (hydroxypropylcellulose) (HPC)) is reported as 106 % of control, the T/C (dose: 50.0 mg/kg/injection, schedule: Q01DX009 (ip), vehicle: Klucel (hydroxypropylcellulose) (HPC)) is reported as 95 % of control and the T/C (dose: 50.0 mg/kg/injection, schedule: Q04DX003 (ip), vehicle: Klucel (hydroxypropylcellulose) (HPC)) is reported as 98 % of control. For the same molecule, the T/C (dose: 100.0 mg/kg/injection, schedule: Q04DX003 (ip), vehicle: Klucel (hydroxypropylcellulose) (HPC)) was 110 % of control.

With `O=C(O)Cc1sc(=O)[nH]c1O` the T/C [11] was 96 % of control, the T/C [12] was 102 % of control and the T/C [13] was 96 % of control. The T/C [14] was 96 % of control, the T/C [15] was 99 % of control and the T/C [16] was 106 % of control.

In the case of `O=C1C/C(=C\c2ccccc2O)C(=O)c2ccccc21`, the T/C (dose: 10.0 mg/kg/injection, schedule: Q04DX002 (ip), vehicle: Klucel (hydroxypropylcellulose) (HPC)) is reported as 101 % of control, the T/C (dose: 20.0 mg/kg/injection, schedule: Q04DX002 (ip), vehicle: Klucel (hydroxypropylcellulose) (HPC)) is reported as 93 % of control and the T/C (dose: 40.0 mg/kg/injection, schedule: Q04DX002 (ip), vehicle: Klucel (hydroxypropylcellulose) (HPC)) is reported as 101 % of control.

In the case of `COc1ccc(OC)c(NC(=O)Oc2ccc(Br)cc2Br)c1`, the T/C [4] is reported as 104 % of control, the T/C [5] is reported as 104 % of control and the T/C [6] is reported as 86 % of control.

`Cc1cc(OC(=O)Nc2ccc(Cl)cc2Cl)c(C)cc1Cl` was tested, and the T/C (dose: 12.5 mg/kg/injection, schedule: Q01DX009 (ip), vehicle: saline with Tween-80) was 95 % of control, the T/C (dose: 25.0 mg/kg/injection, schedule: Q01DX009 (ip), vehicle: saline with Tween-80) was 91 % of control and the T/C [1] was 91 % of control. For the same molecule, the T/C [2] was 98 % of control.

`CN(C)/N=N\c1nc[nH]c1C(=O)N1CCCC1` was tested, and the T/C [19] was 100 % of control, the T/C [20] was 105 % of control and the T/C [7] was 150 % of control and 206 % of control. For the same molecule, the T/C (dose: 400.0 mg/kg/injection, schedule: Q01DX001 (ip), vehicle: saline with Tween-80) was 111 % of control.

In the case of `COc1ccc(C(O)c2cc3ccccc3[nH]2)cc1` (stereo not drawn), the T/C [4] is reported as 95 % of control, the T/C [5] is reported as 109 % of control and the T/C [6] is reported as 106 % of control.

In the case of `Oc1cccc(C(c2ccccc2)c2ccccc2)c1`, the T/C [19] is reported as 94 % of control and the T/C [20] is reported as 94 % of control.

In the case of `CCCCCCOP1(=O)C=C(C)CC1` (stereo not drawn), the T/C [8] is reported as 93 % of control and the T/C [9] is reported as 90 % of control.

In the case of `C1=Cc2ccccc2/C1=C/c1ccc(/C=C2\C=Cc3ccccc32)cc1`, the T/C [8] is reported as 92 % of control, the T/C [9] is reported as 89 % of control and the T/C [10] is reported as 89 % of control.

For `CNc1nc(Cl)nc2ccccc12`, the T/C [1] was 105 % of control, the T/C [2] was 112 % of control and the T/C [7] was 102 % of control.
